Data as given in patent publication US20220105051A1, “COMPOUNDS FOR INCREASING MHC-I EXPRESSION AND MODULATING HISTONE DEACETYLASE ACTIVITY” (Cava Healthcare Inc., priority 2019, published 2022).
Entries after “also recorded” stand apart in the source; their conditions may differ.

Experiments:
Water solubility = format: physicochemical
MHC-I [1] = assay: MHC-I surface expression by flow cytometry; format: cell-based, murine; conditions: A9 cells, 48 hours after treatment, flow cytometry
Method: A9 and TC-1 cell lines were trypsinized (0.05%, Gibco), washed twice with PBS (Gibco), and stained with allophycocyanin (APC) conjugated anti-mouse H-2K^b antibody (1:200, Biolegend) suspended in 150 μL of FACS buffer (PBS+2% FBS) for 20 minutes at 4° C. Cells were washed twice with PBS and re-suspended in 200 μL FACs buffer containing 1 μL of 7-aminoactinomycin (7AAD) viability stain (Biolegend). Flow cytometry was performed on the LSRII (BDBiosciences) and analysis was done using FlowJo (Flow cytometry Analysis Software).
The marine extract library was provided by Dr. Raymond J. Andersen (UBC). The marine invertebrate specimens were collected by SCUBA diving at a 40 metre depth from regions of high marine biodiversity in Papua New Guinea, Indonesia, Thailand, Sri Lanka, Dominica, Brazil, British Columbia, South Africa, and Norway 35. Previously curcuphenol was identified as the active component in one of the marine extracts showing induction of the APM, and since then two new generations of curcuphenol analogues were synthesized in the lab of Dr. Raymond Anderson. To evaluate the ability of these compounds to induce MHC-I surface expression, A9 cells were plated in 6 well plates at 10^5 cells/well and incubated for 24 hours at 37° C. in a 5% CO2 humidified atmosphere. After 24 hours the medium was removed and replaced with medium containing varying concentration of synthesized compounds (6.7 μg/mL, 20 μg/mL, 60 μg/mL). […] Following treatment, cells were incubated for 48 hours at 37° C. with 5% CO2 and humidified atmosphere. After incubation cells were subjected to flow cytometry.
Evaluation of MHC-I surface expression by flow cytometry. LMD:TAP-1 cells or A9 cells were plated in 6 well plates at a concentration of 10,000 cells per well in a 2 mL volume. The next day, cells were treated with the indicated concentrations of the compounds and incubated for 48 hours at 37° C. After incubation, the cells were trypsinized, washed and stained with APC-conjugated anti-mouse MHC-I (specifically anti-H-2K^b) antibody (Biolegend) and assessed by flow cytometry analysis.

CD4+ and CD8+ T cells = assay: Analysis of tumour-infiltrating lymphocytes; format: in vivo, C57BL/6 mice; conditions: after 12 days of treatment, flow cytometry
Method: (§1) The metastatic cell line, A9, was grown in the DMEM, as previously described without, the addition of antibiotics (penicillin and streptomycin, P/S). Once cells reached 75-80% confluence, they were trypsinized (0.05%, Gibco) and washed with HBSS (Hanks balanced salt solution). The cells were counted using the Bio-RAD TC20 automated cell counter and suspended to a concentration of […] in HBSS. Thirty-two synergistic female C57BL/6 mice, between the ages 6-8 weeks, were subcutaneously injected in the right flank with 50 μL containing 5×10^4 A9 metastatic tumour cells. Seven days following tumour inoculation i.p. treatment began daily for 12 days. Four treatment groups were studied, with eight animals per group. […] Body weights were measured three times a week and once tumours developed they were measured with calipers and tumour volume was calculated. Twelve days after starting treatment, mice were euthanized and tumours were collected and weighed. The tumours were then processed for flow cytometry analysis. Tumours were cut into small pieces and incubated RPMI (Gibco; with P/S 0.5%, Sodium pyruvate 1%, and L-glutamine 1%) and 3 mg/mL collagenase A (Roche) for one hour at 37° C. with shaking. Dissociated tumour cells were passed through a 100 μm filter and spun down at 15,000×RCF for 3 minutes. The pellet was washed once in FACs buffer (2% FBS in PBS) and spun down. The pellet was next suspended in red blood cell (RBC) lysis buffer and kept at room temperature for 5 minutes before being neutralized by the addition of 5 ml of PBS and spun down. If pellets were still found to contain RBCs this step was repeated. Once all RBCs were removed cells were suspended in FACs buffer to a concentration of 10^7 cells/mL. A total volume of 200 ul of cells from each tumour were added to a 96 well plate (Falcon) and incubated with Fc Blocker (Biolegend, 1:400) for twenty minutes at 4° C. The 96 well plate was spun down at 1,200 rmp for three minutes and supernatant was removed. The cells were then suspended in 150 ul of FACs buffer containing anti-CD8a (PE-Cy7, 1:200, eBioscience) and CD4 (APC, 1:200, Biolegend) antibodies and incubated at 4° Celsius for 20 minutes. The cells were washed twice and spun down using FACs buffer before being to flow cytometry tubes in a final volume of 200 ul of FACs buffer containing 7AAD (Biolegend 1:200). Flow cytometry was performed on LSRII (BDBiosciences) and analysis was done using FlowJo (Flow cytometry Analysis Software).
Analysis of tumour-infiltrating lymphocytes (TILs). Tumour-infiltrating T lymphocyte (either CD4^+ or CD8^+ T cells) infiltration was evaluated in tumours of mice following 2-week treatment with either compounds or controls. Tumours at the site of initial injection were removed from tumour-bearing mice. Following tumour dissociation in the presence of collagenase A (Roche) and erythrocyte lysis, the tumour cells were then washed and prepared as single-cell suspensions to detect TILs. Before staining with antibodies, the cells were incubated with Fc Blocker (Ebiosciences) for 20 minutes at 4° C. The tumour cells were then washed and stained with anti-CD4-APC (Biolegend), anti-CD8-PECy7 (eBiosciences) and 7-AAD (Biolegend) viability stain. Using flow cytometry, 7-AAD positive dead cells were gated out and the remaining population was assessed for CD4^+ and CD8^+ expression. Data were acquired using a BD™ LSR II flow cytometer (BD Biosciences) with FACSDiva™ software and analyzed with FlowJo software (Treestar).

[2] = test system: A9 metastatic tumour cells; assay: In vivo tumour trial; parameters: species or system C57BL/6 mice; conditions: daily i.p. for 12 days, P02-113 and P03-97-1 5.2 mg/kg, TSA 0.5 mg/kg
Method: as §1
Treatment of tumour-bearing mice with identified compounds. 5×10^4 A9 cells suspended in HBSS were subcutaneously (s.c.) transplanted into the right flank of 32 eight-week-old female C57BI/6 mice, as previously described 75. […] Body weight and tumours (once established) were measured every 2-4 days (more often as tumour size increased). Tumours were measured using calipers and volume was calculated as following: tumour volume=length×width^2. The tumour growth rate was assessed using methods previously described^28.

[3] = literature; cited from earlier work
MHC-I [4] = conditions: earlier work of the lab; cited from earlier work
TAP-1 = assay: High-throughput cell-based screen for TAP-1 induction (EGFP under the TAP-1 promoter); parameters: species or system murine; conditions: LMD:TAP-1 cells, 10 ng/mL
Excerpt: Identification of marine natural product extracts with the ability to promote up-regulation of TAP-1 and […] expression in cancer cells: A high-throughput cell-based screen was used for identification of candidate compounds that increase the expression of TAP-1 in the LMD murine metastatic prostate cell line. To assess the induction of TAP-1 expression we used the LMD:TAP-1 cell line, which was transfected with a vector containing EGFP under the TAP-1 promoter^44. The Cellomics™ Arrayscan VTI automated fluorescence imager was used to determine the cell numbers based on DNA staining and the average GFP fluorescence intensity which correlates to the levels of TAP-1 induction (FIG. 24A). […]
Cell-based screening assay. […] Image acquisition, segmentation and analysis of micro plates were carried out using the Cellomics™ Arrayscan V^TI automated fluorescence imager (Thermo Fisher Scientific). […] The target activation algorithm was used to identify the nuclei based on Hoechst fluorescence intensity, apply a cytoplasmic mask and quantitate GFP fluorescence intensity within the cytoplasmic mask area. Average GFP fluorescence intensity (intensity per cell per pixel) and total number of cells per well were determined. […]

Cc1ccc(CCCC(O)C(C)(C)O)c(O)c1 (stereo not shown) [P04-149]
water solubility (Water solubility): water soluble | induction of MHC-I expression at the cell surface (MHC-I [1]): increases MHC-I expression

CC(/C=C/C(=O)NO)=C\[C@@H](C)C(=O)c1ccc(N(C)C)cc1 [TSA, Trichostatin A, reference compound]
CD4+ T cell infiltration of tumours (CD4+ and CD8+ T cells): no significant infiltration or difference; also recorded: did not appear to increase | CD8+ T cell (CTL) infiltration of tumours (CD4+ and CD8+ T cells): greatest CD8+ infiltration; also recorded: increase in the CTL infiltration | tumour volume / tumour growth compared to vehicle control ([2]; A9 tumours): reduced | body weight [2]: remained stable; also recorded: no significant changes | detection after 24 hours [3]: no detection | half-life [3]: under ten | restoring the MHC-I on A9 cells (MHC-I [4]): effective in restoring the MHC-I

B1: IFN-γ: known inducer of TAP-1 expression, positive control (protein, UniProt P01579 24-161, looked up)
Interferon gamma: QDPYVKEAENLKKYFNAGHSDVADNGTLFLGILKNWKEESDRKIMQSQIVSFYFKLFKNFKDDQSIQKSVETIKEDMNVKFFNSNKKKRDDFEKLTNYSVTDLNVQRKAIHELIQVMAELSPAAKTGKRKRSQMLFRG
TAP promoter-induced GFP expression (TAP-1): high level of GFP expression
